Data published in patent publication US20260355196A1, “INHIBITORS AND DEGRADERS OF PIP4K PROTEIN” (Larkspur Biosciences, Inc., priority 2023, published 2026).

target: T1, PIP4K2C (Homo sapiens, UniProt Q8TBX8); assay: Enzyme Binding Assay (KINOMEscan): active site-directed competition binding to an immobilized ligand; parameters: purchased Eurofins DiscoverX, San Diego, CA 87-0007-1094; details: 11-point dose response, duplicate, top concentration 5 micromolar; read-out: Pip4k2c Kd: IC50
T1 sequence (Q8TBX8 1-421): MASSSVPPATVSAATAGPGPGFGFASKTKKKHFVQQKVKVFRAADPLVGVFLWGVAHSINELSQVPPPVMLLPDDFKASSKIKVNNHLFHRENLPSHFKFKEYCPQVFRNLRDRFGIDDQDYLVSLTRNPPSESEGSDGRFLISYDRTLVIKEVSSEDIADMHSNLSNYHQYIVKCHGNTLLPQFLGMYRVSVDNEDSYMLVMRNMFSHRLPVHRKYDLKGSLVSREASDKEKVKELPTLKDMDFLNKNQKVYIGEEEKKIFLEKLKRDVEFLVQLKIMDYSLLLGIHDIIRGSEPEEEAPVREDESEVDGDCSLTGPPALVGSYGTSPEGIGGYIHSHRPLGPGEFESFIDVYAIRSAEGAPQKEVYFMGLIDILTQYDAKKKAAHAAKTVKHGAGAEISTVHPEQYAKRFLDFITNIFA
In short: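 IC50 values come from Hill-equation fits (Levenberg-Marquardt) to 11-point duplicate titrations starting at 5 micromolar. Read-out is competition of compound with an immobilized ligand for the kinase active site.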

| IC50 [nM] | SMILES |
| --- | --- |
| < 500 | CNC(=O)[C@H]1C[C@H](Nc2ncc(Cl)c(-c3cccc(-c4ccc[nH]c4=O)c3)n2)C1 [Compound 139, trans-(1r,3r)-3-((5-chloro-4-(3-(2-oxo-1,2-dihydropyridin-3-yl)phenyl)pyrimidin-2-yl)amino)-N-methylcyclobutane-1-carboxamide] |
| < 500 | CNC(=O)[C@H]1C[C@H](Nc2ncc(Cl)c(-c3cccc(-c4ccc(F)cc4)n3)n2)C1 [Compound 140, trans-(1r,3r)-3-((5-chloro-4-(6-(4-fluorophenyl)pyridin-2-yl)pyrimidin-2-yl)amino)-N-methylcyclobutane-1-carboxamide] |
| < 500 | CC(=O)N1CCC[C@H](Nc2ncc(Cl)c(-c3ccnc(-c4ccc(F)cc4)c3)n2)C1 [Compound 141, (S)-1-(3-((5-chloro-4-(2-(4-fluorophenyl)pyridin-4-yl)pyrimidin-2-yl)amino)piperidin-1-yl)ethan-1-one] |
| < 500 | CC(=O)N[C@H]1CC[C@H](Nc2ncc(Cl)c(-c3ccnc(-c4ccc(F)cc4)c3)n2)CC1 [Compound 142, trans-N-((1r,4r)-4-((5-chloro-4-(2-(4-fluorophenyl)pyridin-4-yl)pyrimidin-2-yl)amino)cyclohexyl)acetamide] |
| 500 to 1000 | CC(=O)N1CCC[C@H](Nc2ncc(Cl)c(-c3ccc(=O)n(-c4ccc(F)cc4)c3)n2)C1 [Compound 143, (S)-5-(2-((1-acetylpiperidin-3-yl)amino)-5-chloropyrimidin-4-yl)-1-(4-fluorophenyl)pyridin-2(1H)-one] |
| 1000 to 5000 | CNC(=O)[C@H]1CC[C@H](Nc2ncc(Cl)c(-c3cc(C4CC4)[nH]n3)n2)CC1 [Compound 144, trans-(1r,4r)-4-((5-chloro-4-(5-cyclopropyl-1H-pyrazol-3-yl)pyrimidin-2-yl)amino)-N-methylcyclohexane-1-carboxamide] |
| < 500 | CC(=O)N[C@H]1CC[C@H](Nc2ncc(Cl)c(-c3cnn(-c4ccc(=O)[nH]c4)c3)n2)CC1 [Compound 145, trans-N-((1r,4r)-4-((5-chloro-4-(1-(6-oxo-1,6-dihydropyridin-3-yl)-1H-pyrazol-4-yl)pyrimidin-2-yl)amino)cyclohexyl)acetamide] |
| < 500 | CNC(=O)[C@H]1CC[C@H](Nc2ncc(Cl)c(-c3cnn(-c4ccc(=O)[nH]c4)c3)n2)CC1 [Compound 146, trans-(1r,4r)-4-((5-chloro-4-(1-(6-oxo-1,6-dihydropyridin-3-yl)-1H-pyrazol-4-yl)pyrimidin-2-yl)amino)-N-methylcyclohexane-1-carboxamide] |
| < 500 | CC(=O)N[C@H]1CC[C@H](Nc2ncc(Cl)c(-c3cnn(-c4cc[nH]c(=O)c4)c3)n2)CC1 [Compound 147, trans-N-((1r,4r)-4-((5-chloro-4-(1-(2-oxo-1,2-dihydropyridin-4-yl)-1H-pyrazol-4-yl)pyrimidin-2-yl)amino)cyclohexyl)acetamide] |
| 1000 to 5000 | CNC(=O)[C@H]1CC[C@@H](Nc2ncc(Cl)c(-c3cnn(-c4cc[nH]c(=O)c4)c3)n2)CC1 [Compound 148, cis-(1s,4s)-4-((5-chloro-4-(1-(2-oxo-1,2-dihydropyridin-4-yl)-1H-pyrazol-4-yl)pyrimidin-2-yl)amino)-N-methylcyclohexane-1-carboxamide] |
| < 500 | CC(=O)N[C@H]1CC[C@H](Nc2ncc(Cl)c(-c3cnn(-c4ccc[nH]c4=O)c3)n2)CC1 [Compound 149, trans-N-((1r,4r)-4-((5-chloro-4-(1-(2-oxo-1,2-dihydropyridin-3-yl)-1H-pyrazol-4-yl)pyrimidin-2-yl)amino)cyclohexyl)acetamide] |
| < 500 | CC(=O)N1CCC[C@H](Nc2ncc(Cl)c(-c3cccc(-c4ccc[nH]c4=O)c3)n2)C1 [Compound 152, (S)-3-(3-(2-((1-acetylpiperidin-3-yl)amino)-5-chloropyrimidin-4-yl)phenyl)pyridin-2(1H)-one] |
| < 500 | CC(=O)N[C@H]1CC[C@@H](Nc2ncc(Cl)c(-c3cccc(-c4ccc[nH]c4=O)c3)n2)CC1 [Compound 153, cis-N-((1s,4s)-4-((5-chloro-4-(3-(2-oxo-1,2-dihydropyridin-3-yl)phenyl)pyrimidin-2-yl)amino)cyclohexyl)acetamide] |
| < 500 | CC(=O)N[C@H]1CC[C@H](Nc2ncc(Cl)c(-c3cccc(-c4ccc[nH]c4=O)c3)n2)CC1 [Compound 154, trans-N-((1r,4r)-4-((5-chloro-4-(3-(2-oxo-1,2-dihydropyridin-3-yl)phenyl)pyrimidin-2-yl)amino)cyclohexyl)acetamide] |
| < 500 | CNC(=O)[C@H]1CC[C@H](Nc2ncc(Cl)c(-c3cccc(-c4ccc[nH]c4=O)c3)n2)CC1 [Compound 155, trans-(1r,4r)-4-((5-chloro-4-(3-(2-oxo-1,2-dihydropyridin-3-yl)phenyl)pyrimidin-2-yl)amino)-N-methylcyclohexane-1-carboxamide] |
| < 500 | CNC(=O)[C@H]1C[C@@H](Nc2ncc(Cl)c(-c3cccc(-c4ccc[nH]c4=O)c3)n2)C1 [Compound 156, cis-3-((5-chloro-4-(3-(2-oxo-1,2-dihydropyridin-3-yl)phenyl)pyrimidin-2-yl)amino)-N-methylcyclobutane-1-carboxamide] |
| < 500 | CC(=O)N1CCC[C@H](Nc2ncc(Cl)c(-c3cccc(-c4cccc(=O)[nH]4)c3)n2)C1 [Compound 157, (S)-6-(3-(2-((1-acetylpiperidin-3-yl)amino)-5-chloropyrimidin-4-yl)phenyl)pyridin-2(1H)-one] |
| < 500 | CC(=O)N[C@H]1CC[C@H](Nc2ncc(Cl)c(-c3cccc(-c4ccc(F)cc4)n3)n2)CC1 [Compound 158, trans-N-((1r,4r)-4-((5-chloro-4-(6-(4-fluorophenyl)pyridin-2-yl)pyrimidin-2-yl)amino)cyclohexyl)acetamide] |
| < 500 | CNC(=O)[C@H]1CC[C@H](Nc2ncc(Cl)c(-c3cccc(-c4ccc(F)cc4)n3)n2)CC1 [Compound 159, trans-(1r,4r)-4-((5-chloro-4-(6-(4-fluorophenyl)pyridin-2-yl)pyrimidin-2-yl)amino)-N-methylcyclohexane-1-carboxamide] |
| < 500 | CNC(=O)[C@H]1CC[C@H](Nc2ncc(Cl)c(-c3ccnc(-c4ccc(F)cc4)c3)n2)CC1 [Compound 160, trans-(1r,4r)-4-((5-chloro-4-(2-(4-fluorophenyl)pyridin-4-yl)pyrimidin-2-yl)amino)-N-methylcyclohexane-1-carboxamide] |
| < 500 | CNC(=O)[C@H]1C[C@@H](Nc2ncc(Cl)c(-c3cc(C4CC4)[nH]n3)n2)C1 [Compound 161, cis-3-((5-chloro-4-(5-cyclopropyl-1H-pyrazol-3-yl)pyrimidin-2-yl)amino)-N-methylcyclobutane-1-carboxamide] |
| < 500 | CNC(=O)[C@H]1C[C@H](Nc2ncc(Cl)c(-c3cc(C4CC4)[nH]n3)n2)C1 [Compound 162, trans-(1r,3r)-3-((5-chloro-4-(5-cyclopropyl-1H-pyrazol-3-yl)pyrimidin-2-yl)amino)-N-methylcyclobutane-1-carboxamide] |
| 500 to 1000 | CNC(=O)[C@H]1CC[C@@H](Nc2ncc(Cl)c(-c3cnn(-c4ccc(=O)[nH]c4)c3)n2)CC1 [Compound 163, cis-(1s,4s)-4-((5-chloro-4-(1-(6-oxo-1,6-dihydropyridin-3-yl)-1H-pyrazol-4-yl)pyrimidin-2-yl)amino)-N-methylcyclohexane-1-carboxamide] |
